# How the values were obtained:
# redroot pigweed [1] = assay: Test Example 5: herbicidal effect by foliage application, plastic box (Table 20, symbol N); assay type: in vivo, redroot pigweed (Amaranthus retroflexus); conditions: foliage application, 320 g/ha, evaluated three weeks after application
# Procedure, shortened: (§1)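 Foliar spray test: emulsion formulation diluted in water to a set application rate, sprayed onto 14-day-old plants raised in diluvial soil at 25° C to 30° C under glass. Both herbicidal effect and crop effect rated visually three weeks later.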
# late watergrass = assay: Test Example 1: herbicidal activity, application before weed generation under submerged conditions (Table 16, symbol A); assay type: in vivo, late watergrass (Echinochloa oryzicola); conditions: 320 g/ha applied herbicide
# Procedure, shortened: (§2)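 Emulsion formulation, water-diluted to set dose, was put onto the flooded surface (4 cm depth, alluvial soil) the same day weeds were sown and 2.5-leaf rice transplanted. After 3 weeks at 25-30 °C under glass, each species was rated 0 (≤5% kill) to 5 (≥90% kill).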
# persian speedwell [2] = assay: Test Example 5: herbicidal effect by foliage application, plastic box (Table 20, symbol R); assay type: in vivo, Persian speedwell (Veronica persica); conditions: foliage application, 320 g/ha, evaluated three weeks after application
# Procedure, shortened: as §1
# southern crabgrass [3] = assay: Test Example 4: herbicidal effect by soil treatment (Table 19, symbol F); assay type: in vivo, southern crabgrass (Digitaria ciliaris); conditions: 320 g/ha
# Procedure, shortened: (§3)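 Step 1: sow seeds in sterilized diluvial soil, cover ~1.5 cm. Step 2: spray diluted emulsion onto soil surface at predetermined rate. Step 3: greenhouse, 25–30° C, three weeks. Step 4: grade effect on each plant by earlier criteria.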
# wild oat [4] = assay: Test Example 5: herbicidal effect by foliage application, plastic box (Table 20, symbol I); assay type: in vivo, wild oat (Avena fatua); conditions: foliage application, 320 g/ha, evaluated three weeks after application
# Procedure, shortened: as §1
# oval-leafed pondweed = assay: Test Example 1: herbicidal activity, application before weed generation under submerged conditions (Table 16, symbol C); assay type: in vivo, oval-leafed pondweed (Monochoria vaginalis); conditions: 320 g/ha applied herbicide
# Procedure, shortened: as §2
# lambsquarters [5] = assay: Test Example 5: herbicidal effect by foliage application, plastic box (Table 20, symbol O); assay type: in vivo, lambsquarters (Chenopodium album); conditions: foliage application, 320 g/ha, evaluated three weeks after application
# Procedure, shortened: as §1
# green foxtail [6] = assay: Test Example 4: herbicidal effect by soil treatment (Table 19, symbol G); assay type: in vivo, green foxtail (Setaria viridis); conditions: 320 g/ha
# Procedure, shortened: as §3
# green foxtail [7] = assay: Test Example 5: herbicidal effect by foliage application, plastic box (Table 20, symbol G); assay type: in vivo, green foxtail (Setaria viridis); conditions: foliage application, 320 g/ha, evaluated three weeks after application
# Procedure, shortened: as §1
# chickweed [8] = assay: Test Example 5: herbicidal effect by foliage application, plastic box (Table 20, symbol P); assay type: in vivo, common chickweed (Stellaria media); conditions: foliage application, 320 g/ha, evaluated three weeks after application
# Procedure, shortened: as §1
# barnyard grass [9] = assay: Test Example 5: herbicidal effect by foliage application, plastic box (Table 20, symbol H); assay type: in vivo, barnyard grass (Echinochloa crus-galli); conditions: foliage application, 320 g/ha, evaluated three weeks after application
# Procedure, shortened: as §1
# Italian ryegrass [10] = assay: Test Example 5: herbicidal effect by foliage application, plastic box (Table 20, symbol K); assay type: in vivo, Italian ryegrass (Lolium multiflorum); conditions: foliage application, 320 g/ha, evaluated three weeks after application
# Procedure, shortened: as §1
# barnyard grass [11] = assay: Test Example 4: herbicidal effect by soil treatment (Table 19, symbol H); assay type: in vivo, barnyard grass (Echinochloa crus-galli); conditions: 320 g/ha
# Procedure, shortened: as §3
# Japanese bulrush = assay: Test Example 1: herbicidal activity, application before weed generation under submerged conditions (Table 16, symbol B); assay type: in vivo, Japanese bulrush (Schoenoplectus juncoides); conditions: 320 g/ha applied herbicide
# Procedure, shortened: as §2
# wild oat [12] = assay: Test Example 4: herbicidal effect by soil treatment (Table 19, symbol I); assay type: in vivo, wild oat (Avena fatua); conditions: 320 g/ha
# Procedure, shortened: as §3
# rice flat sedge = assay: Test Example 3: herbicidal effect by foliage application, Wagner pot (Table 18, symbol E); assay type: in vivo, rice flat sedge (Cyperus iria); conditions: 320 g/ha
# Procedure, shortened: (§4)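 Plants were sown in alluvial soil held under 0.1–0.5 cm standing water and grown 14 days in a greenhouse at 25–30 °C. An emulsifiable formulation, water-diluted to the set dose, was then sprayed onto the foliage, and effects were scored three weeks later using previously defined criteria.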
# windgrass [13] = assay: Test Example 4: herbicidal effect by soil treatment (Table 19, symbol L); assay type: in vivo, windgrass (Apera spica-venti); conditions: 320 g/ha
# Procedure, shortened: as §3
# chickweed [14] = assay: Test Example 4: herbicidal effect by soil treatment (Table 19, symbol P); assay type: in vivo, common chickweed (Stellaria media); conditions: 320 g/ha
# Procedure, shortened: as §3
# lambsquarters [15] = assay: Test Example 4: herbicidal effect by soil treatment (Table 19, symbol O); assay type: in vivo, lambsquarters (Chenopodium album); conditions: 320 g/ha
# Procedure, shortened: as §3
# persian speedwell [16] = assay: Test Example 4: herbicidal effect by soil treatment (Table 19, symbol R); assay type: in vivo, Persian speedwell (Veronica persica); conditions: 320 g/ha
# Procedure, shortened: as §3
# velvetleaf [17] = assay: Test Example 4: herbicidal effect by soil treatment (Table 19, symbol M); assay type: in vivo, velvetleaf (Abutilon theophrasti); conditions: 320 g/ha
# Procedure, shortened: as §3
# southern crabgrass [18] = assay: Test Example 5: herbicidal effect by foliage application, plastic box (Table 20, symbol F); assay type: in vivo, southern crabgrass (Digitaria ciliaris); conditions: foliage application, 320 g/ha, evaluated three weeks after application
# Procedure, shortened: as §1
# blackgrass [19] = assay: Test Example 5: herbicidal effect by foliage application, plastic box (Table 20, symbol J); assay type: in vivo, blackgrass (Alopecurus myosuroides); conditions: foliage application, 320 g/ha, evaluated three weeks after application
# Procedure, shortened: as §1
# Chinese sprangletop = assay: Test Example 3: herbicidal effect by foliage application, Wagner pot (Table 18, symbol D); assay type: in vivo, chinese sprangletop (Leptochloa chinensis); conditions: 320 g/ha
# Procedure, shortened: as §4
# windgrass [20] = assay: Test Example 5: herbicidal effect by foliage application, plastic box (Table 20, symbol L); assay type: in vivo, windgrass (Apera spica-venti); conditions: foliage application, 320 g/ha, evaluated three weeks after application
# Procedure, shortened: as §1
# blackgrass [21] = assay: Test Example 4: herbicidal effect by soil treatment (Table 19, symbol J); assay type: in vivo, blackgrass (Alopecurus myosuroides); conditions: 320 g/ha
# Procedure, shortened: as §3
# barnyard grass [22] = assay: Test Example 3: herbicidal effect by foliage application, Wagner pot (Table 18, symbol H); assay type: in vivo, barnyard grass (Echinochloa crus-galli); conditions: 320 g/ha
# Procedure, shortened: as §4
# Italian ryegrass [23] = assay: Test Example 4: herbicidal effect by soil treatment (Table 19, symbol K); assay type: in vivo, Italian ryegrass (Lolium multiflorum); conditions: 320 g/ha
# Procedure, shortened: as §3
# redroot pigweed [24] = assay: Test Example 4: herbicidal effect by soil treatment (Table 19, symbol N); assay type: in vivo, redroot pigweed (Amaranthus retroflexus); conditions: 320 g/ha
# Procedure, shortened: as §3
# velvetleaf [25] = assay: Test Example 5: herbicidal effect by foliage application, plastic box (Table 20, symbol M); assay type: in vivo, velvetleaf (Abutilon theophrasti); conditions: foliage application, 320 g/ha, evaluated three weeks after application
# Procedure, shortened: as §1
smiles,measurement,setting,value
Cc1nn(C)c(=O)c(-c2c(-c3ccc(Cl)c(Cl)c3)sc3ccc(F)cc23)c1O [2-081],herbicidal effect on N: redroot pigweed,redroot pigweed [1],5 (Herbicidal rate of 90% or more (almost completely withered))
same,Herbicidal effect on A: late watergrass (grade 0-5),late watergrass,4 (Herbicidal rate of 70% or more and less than 90%)
same,herbicidal effect on R: persian speedwell,persian speedwell [2],5 (Herbicidal rate of 90% or more (almost completely withered))
same,"herbicidal effect rating, F: southern crabgrass",southern crabgrass [3],0 (Herbicidal rate of 5% or less (almost no effect))
same,herbicidal effect on I: wild oat,wild oat [4],4 (Herbicidal rate of 70% or more and less than 90%)
same,Herbicidal effect on C: oval-leafed pondweed (grade 0-5),oval-leafed pondweed,0 (Herbicidal rate of 5% or less (almost no effect))
same,herbicidal effect on O: lambsquarters,lambsquarters [5],5 (Herbicidal rate of 90% or more (almost completely withered))
same,"herbicidal effect rating, G: green foxtail",green foxtail [6],0 (Herbicidal rate of 5% or less (almost no effect))
same,herbicidal effect on G: green foxtail,green foxtail [7],5 (Herbicidal rate of 90% or more (almost completely withered))
same,herbicidal effect on P: chickweed,chickweed [8],5 (Herbicidal rate of 90% or more (almost completely withered))
same,herbicidal effect on H: barnyard grass,barnyard grass [9],5 (Herbicidal rate of 90% or more (almost completely withered))
same,herbicidal effect on K: Italian ryegrass,Italian ryegrass [10],5 (Herbicidal rate of 90% or more (almost completely withered))
same,"herbicidal effect rating, H: barnyard grass",barnyard grass [11],0 (Herbicidal rate of 5% or less (almost no effect))
same,Herbicidal effect on B: Japanese bulrush (grade 0-5),Japanese bulrush,2 (Herbicidal rate of 20% or more and less than 40%)
same,"herbicidal effect rating, I: wild oat",wild oat [12],0 (Herbicidal rate of 5% or less (almost no effect))
same,"herbicidal effect on E (rice flat sedge), rating 0-5",rice flat sedge,5 (Herbicidal rate of 90% or more (almost completely withered))
same,"herbicidal effect rating, L: windgrass",windgrass [13],0 (Herbicidal rate of 5% or less (almost no effect))
same,"herbicidal effect rating, P: chickweed",chickweed [14],3 (Herbicidal rate of 40% or more and less than 70%)
same,"herbicidal effect rating, O: lambsquarters",lambsquarters [15],4 (Herbicidal rate of 70% or more and less than 90%)
same,"herbicidal effect rating, R: persian speedwell",persian speedwell [16],4 (Herbicidal rate of 70% or more and less than 90%)
same,"herbicidal effect rating, M: velvetleaf",velvetleaf [17],3 (Herbicidal rate of 40% or more and less than 70%)
same,herbicidal effect on F: southern crabgrass,southern crabgrass [18],4 (Herbicidal rate of 70% or more and less than 90%)
same,herbicidal effect on J: blackgrass,blackgrass [19],2 (Herbicidal rate of 20% or more and less than 40%)
same,"herbicidal effect on D (Chinese sprangletop), rating 0-5",Chinese sprangletop,3 (Herbicidal rate of 40% or more and less than 70%)
same,herbicidal effect on L: windgrass,windgrass [20],5 (Herbicidal rate of 90% or more (almost completely withered))
same,"herbicidal effect rating, J: blackgrass",blackgrass [21],0 (Herbicidal rate of 5% or less (almost no effect))
same,"herbicidal effect on H (barnyard grass), rating 0-5",barnyard grass [22],5 (Herbicidal rate of 90% or more (almost completely withered))
same,"herbicidal effect rating, K: Italian ryegrass",Italian ryegrass [23],4 (Herbicidal rate of 70% or more and less than 90%)
same,"herbicidal effect rating, N: redroot pigweed",redroot pigweed [24],5 (Herbicidal rate of 90% or more (almost completely withered))
same,herbicidal effect on M: velvetleaf,velvetleaf [25],5 (Herbicidal rate of 90% or more (almost completely withered))

# Source: patent publication US20230085307A1, “PYRIDAZINONE COMPOUND AND HERBICIDE” (NISSAN CHEMICAL CORPORATION, priority 2019, published 2023)
